The values that follow are results of earlier work, collected in patent publication US20120035233A1 (priority 2009, published 2012).

The structures appear in SMILES notation. Where two headings read alike, the source gives them in different places.

As to `Clc1ccc(COC(Cn2ccnc2)c2ccc(Cl)cc2Cl)c(Cl)c1` (centres unmarked) [Miconazole Nitrate, 1-[2-(2,4-Dichlorophenyl)-2-[(2,4-dichlorophenyl)methoxy]ethyl]-1H-imidazole], the solubility result is, setting by setting: (chloroform) “slightly soluble”; (ethanol (95%)) “slightly soluble”; (ether) “very slightly soluble”; (methanol) “freely soluble”; (water) “very slightly soluble”.
